From ChEMBL document CHEMBL3045466, “Novel 2H-[1,2,4]thiadiazolo[2,3-a]pyrimidine derivatives bearing chiral S()-2-(4-chlorophenyl)-3-methylbutyric acid moiety: Design, synthesis and herbicidal activity” (2010)

What was measured:
Type in all cases: functional
Details in all cases: 144 h, read-out: GI
Amaranthus retroflexus [1] = assay: Herbicidal activity against Amaranthus retroflexus assessed as inhibition of root growth at 100 ppm after 6 days by flat-utensil method relative to control
Amaranthus retroflexus [2] = assay: Herbicidal activity against Amaranthus retroflexus assessed as inhibition of stalk growth at 100 ppm after 6 days by flat-utensil method relative to control
Amaranthus retroflexus [3] = assay: Herbicidal activity against Amaranthus retroflexus assessed as inhibition of root growth at 50 ppm after 6 days by flat-utensil method relative to control
Amaranthus retroflexus [4] = assay: Herbicidal activity against Amaranthus retroflexus assessed as inhibition of stalk growth at 50 ppm after 6 days by flat-utensil method relative to control
Chenopodium ficifolium [5] = assay: Herbicidal activity against Chenopodium ficifolium assessed as inhibition of root growth at 100 ppm after 6 days by flat-utensil method relative to control
Chenopodium ficifolium [6] = assay: Herbicidal activity against Chenopodium ficifolium assessed as inhibition of stalk growth at 100 ppm after 6 days by flat-utensil method relative to control
Chenopodium ficifolium [7] = assay: Herbicidal activity against Chenopodium ficifolium assessed as inhibition of root growth at 50 ppm after 6 days by flat-utensil method relative to control
Chenopodium ficifolium [8] = assay: Herbicidal activity against Chenopodium ficifolium assessed as inhibition of stalk growth at 50 ppm after 6 days by flat-utensil method relative to control
Digitaria sanguinalis [9] = assay: Herbicidal activity against Digitaria sanguinalis (hairy crabgrass) assessed as inhibition of root growth at 100 ppm after 6 days by flat-utensil method relative to control
Digitaria sanguinalis [10] = assay: Herbicidal activity against Digitaria sanguinalis (hairy crabgrass) assessed as inhibition of stalk growth at 100 ppm after 6 days by flat-utensil method relative to control
Digitaria sanguinalis [11] = assay: Herbicidal activity against Digitaria sanguinalis (hairy crabgrass) assessed as inhibition of root growth at 50 ppm after 6 days by flat-utensil method relative to control
Digitaria sanguinalis [12] = assay: Herbicidal activity against Digitaria sanguinalis (hairy crabgrass) assessed as inhibition of stalk growth at 50 ppm after 6 days by flat-utensil method relative to control
Sorghum bicolor [13] = assay: Herbicidal activity against Sorghum bicolor assessed as inhibition of root growth at 100 ppm after 6 days by flat-utensil method relative to control
Sorghum bicolor [14] = assay: Herbicidal activity against Sorghum bicolor assessed as inhibition of stalk growth at 100 ppm after 6 days by flat-utensil method relative to control
Sorghum bicolor [15] = assay: Herbicidal activity against Sorghum bicolor assessed as inhibition of root growth at 50 ppm after 6 days by flat-utensil method relative to control
Sorghum bicolor [16] = assay: Herbicidal activity against Sorghum bicolor assessed as inhibition of stalk growth at 50 ppm after 6 days by flat-utensil method relative to control
Echinochloa crus-galli [17] = assay: Herbicidal activity against Echinochloa crus-galli (barnyard grass) assessed as inhibition of root growth at 100 ppm after 6 days by flat-utensil method relative to control
Echinochloa crus-galli [18] = assay: Herbicidal activity against Echinochloa crus-galli (barnyard grass) assessed as inhibition of stalk growth at 100 ppm after 6 days by flat-utensil method relative to control
Echinochloa crus-galli [19] = assay: Herbicidal activity against Echinochloa crus-galli (barnyard grass) assessed as inhibition of root growth at 50 ppm after 6 days by flat-utensil method relative to control
Echinochloa crus-galli [20] = assay: Herbicidal activity against Echinochloa crus-galli (barnyard grass) assessed as inhibition of stalk growth at 50 ppm after 6 days by flat-utensil method relative to control

Row | Structure (SMILES) | inhibition of growth at 100 ppm (Amaranthus retroflexus [1]) | inhibition of growth at 100 ppm (Amaranthus retroflexus [2]) | inhibition of growth at 50 ppm (Amaranthus retroflexus [3]) | inhibition of growth at 50 ppm (Amaranthus retroflexus [4]) | inhibition of growth at 100 ppm (Chenopodium ficifolium [5]) | inhibition of growth at 100 ppm (Chenopodium ficifolium [6]) | inhibition of growth at 50 ppm (Chenopodium ficifolium [7]) | inhibition of growth at 50 ppm (Chenopodium ficifolium [8]) | inhibition of growth at 100 ppm (Digitaria sanguinalis [9]) | inhibition of growth at 100 ppm (Digitaria sanguinalis [10]) | inhibition of growth at 50 ppm (Digitaria sanguinalis [11]) | inhibition of growth at 50 ppm (Digitaria sanguinalis [12]) | inhibition of growth at 100 ppm (Sorghum bicolor [13]) | inhibition of growth at 100 ppm (Sorghum bicolor [14]) | inhibition of growth at 50 ppm (Sorghum bicolor [15]) | inhibition of growth at 50 ppm (Sorghum bicolor [16]) | inhibition of growth at 100 ppm (Echinochloa crus-galli [17]) | inhibition of growth at 100 ppm (Echinochloa crus-galli [18]) | inhibition of growth at 50 ppm (Echinochloa crus-galli [19]) | inhibition of growth at 50 ppm (Echinochloa crus-galli [20])
1 | Cc1cc(C)n2s/c(=N\C(=O)[C@H](c3ccc(Cl)cc3)C(C)C)nc2n1 | 100% | 95% | 50% | 50% | 85% | 80% | 50% | 50% | 80% | 90% | 45% | 55% | 20% | 25% | 20% | 20% | 30% | 80% | 30% | 50%
2 | COc1cc(OC)n2s/c(=N\C(=O)[C@H](c3ccc(Cl)cc3)C(C)C)nc2n1 | 95% | 80% | 40% | 45% | 90% | 90% | 90% | 90% | 80% | 90% | 40% | 50% | 50% | 40% | 20% | 25% | 20% | 70% | 20% | 40%
3 | CC(C)[C@H](C(=O)/N=c1/nc2nc(Cl)cc(Cl)n2s1)c1ccc(Cl)cc1 | 80% | 75% | 45% | 50% | 60% | 40% | 30% | 20% | 0% | 10% | 0% | 0% | 20% | 30% | 20% | 20% | 50% | 75% | 30% | 40%
4 | COc1cc(Cl)n2s/c(=N\C(=O)[C@H](c3ccc(Cl)cc3)C(C)C)nc2n1 | 30% | 20% | 0% | 0% | 10% | 20% | 10% | 10% | 10% | 10% | 0% | 0% | 80% | 80% | 60% | 60% | 100% | 70% | 80% | 60%
5 | Cc1cc(O)n2s/c(=N\C(=O)[C@H](c3ccc(Cl)cc3)C(C)C)nc2n1 | 90% | 95% | 50% | 60% | 80% | 100% | 50% | 70% | 25% | 10% | 20% | 10% | 30% | 40% | 30% | 35% | 80% | 40% | 70% | 30%
6 | Cc1cc(Cl)n2s/c(=N\C(=O)[C@H](c3ccc(Cl)cc3)C(C)C)nc2n1 | 100% | 100% | 85% | 90% | 90% | 85% | 80% | 80% | 40% | 30% | 30% | 30% | 40% | 20% | 20% | 10% | 90% | 30% | 70% | 10%
7 | Cc1cc(C)n2s/c(=N\C(=O)C(c3ccc(Cl)cc3)C(C)C)nc2n1 (racemic) | 50% | 20% | 20% | 10% | 60% | 70% | 35% | 40% | 70% | 60% | 30% | 40% | 0% | 10% | 0% | 0% | 10% | 25% | 0% | 20%
8 | COc1cc(OC)n2s/c(=N\C(=O)C(c3ccc(Cl)cc3)C(C)C)nc2n1 (racemic) | 45% | 30% | 20% | 30% | 50% | 50% | 20% | 20% | 60% | 60% | 30% | 35% | 0% | 20% | 0% | 10% | 0% | 30% | 0% | 30%
